This passage reports IC50 and EC50 results from patent publication US20140288071A1, “INHIBITORS OF NOTUM […] AND METHODS OF THEIR USE” (priority 2011, published 2014).

In one experiment the target is T1, human notum pectinacetyltransferase (Homo sapiens, UniProt Q6P988).
T1 construct: made in house; conditioned medium used
T1 sequence (Q6P988 20-496): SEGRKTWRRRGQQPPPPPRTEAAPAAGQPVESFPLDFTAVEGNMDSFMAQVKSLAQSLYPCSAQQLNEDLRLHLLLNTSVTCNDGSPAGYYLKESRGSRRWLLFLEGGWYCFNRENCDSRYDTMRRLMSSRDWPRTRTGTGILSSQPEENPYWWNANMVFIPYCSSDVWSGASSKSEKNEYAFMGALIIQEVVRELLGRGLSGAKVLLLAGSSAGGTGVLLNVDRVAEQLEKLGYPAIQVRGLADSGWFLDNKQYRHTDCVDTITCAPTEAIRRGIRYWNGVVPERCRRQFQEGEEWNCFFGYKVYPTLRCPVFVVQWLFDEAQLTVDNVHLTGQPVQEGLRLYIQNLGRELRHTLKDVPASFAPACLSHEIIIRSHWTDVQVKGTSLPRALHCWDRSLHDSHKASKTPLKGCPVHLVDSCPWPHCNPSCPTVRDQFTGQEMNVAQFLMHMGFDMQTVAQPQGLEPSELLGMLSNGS
Kind of experiment: Binding assay (OPTS esterase substrate, fluorimetric). In kind it is biochemical. Particulars: OPTS substrate 5 μM. Here is the method: Plasmid containing human notum pectinacetyltransferase in pcDNA3.1(+) vector was transfected into HEK293 cells and clones were selecting by growing in presence of 400 ug/mL of G418. Condition media from these cells was used for the assay.
A word on the IC50: it is the point on the concentration scale where inhibition reaches its midpoint. Consider “2-(7-cyclopropyl-6-(trifluoromethyl)thieno[3,2-d]pyrimidin-4-yl)thio)acetate”, for which the concentration for half-maximal inhibition (IC50) is below 25 nM.

In turn, `Cc1sc2ncnc(SCC(=O)N3CCC(C(N)=O)CC3)c2c1C` [1-(2-((5,6-dimethylthieno[2,3-d]pyrimidin-4-yl)thio)acetyl)piperidine-4-carboxamide] came in with a half-maximal inhibitory concentration (IC50) below 250 nM.

On to `COc1cc2c(cc1OC)CN(C(=O)CSc1ncnc3sc(C)c(C)c13)C2` [1-(5,6-dimethoxyisoindolin-2-yl)-2-((5,6-dimethylthieno[2,3-d]pyrimidin-4-yl)thio)ethanone], for which the IC50 is below 25 nM.

In the case of `O=C(O)CSc1ncnc2c(C3CC3)c(C(F)(F)F)sc12` [2-(7-cyclopropyl-6-(trifluoromethyl)thieno[3,2-d]pyrimidin-4-yl)thio)acetic acid], the IC50 is below 25 nM.

Compound `Cc1sc2ncnc(SCC(=O)N3Cc4ccccc4C3)c2c1C` [2-((5,6-dimethylthieno[2,3-d]pyrimidin-4-yl)thio)-1-(isoindolin-2-yl)ethanone] had a 50% inhibitory concentration (IC50) below 25 nM.

With `Cc1sc2ncnc(SCC(=O)Nc3ccccc3F)c2c1C` [2-((5,6-dimethylthieno[2,3-d]pyrimidin-4-yl)thio)-N-(2-fluorophenyl)acetamide], the IC50 is below 25 nM.

In turn, `Cc1cc(NC(=O)CSc2ncnc3sc(C)c(C)c23)no1` [2-((5,6-dimethylthieno[2,3-d]pyrimidin-4-yl)thio)-N-(5-methylisoxazol-3-yl)acetamide] showed a half-maximal inhibitory concentration (IC50) below 25 nM.

In the case of `Cc1ccc(S(=O)(=O)NC(=O)CSc2ncnc3sc(C)c(C)c23)nc1` [2-((5,6-dimethylthieno[2,3-d]pyrimidin-4-yl)thio)-N-((5-methylpyridin-2-yl)sulfonyl)acetamide], the half-inhibitory concentration (IC50) is below 100 nM.

The compound `Cc1sc2ncnc(SCC(=O)NOC3CCCCO3)c2c1C` (centres unmarked) [2-((5,6-dimethylthieno[2,3-d]pyrimidin-4-yl)thio)-N-((tetrahydro-2H-pyran-2-yl)oxy)acetamide] had an IC50 below 25 nM.

As to `CCS(=O)(=O)NC(=O)CSc1ncnc2sc(C)c(C)c12` [2-((5,6-dimethylthieno[2,3-d]pyrimidin-4-yl)thio)-N-(ethylsulfonyl)acetamide], the IC50 was below 25 nM.

As to `Cc1sc2ncnc(SCC(=O)NCc3ccco3)c2c1C` [2-((5,6-dimethylthieno[2,3-d]pyrimidin-4-yl)thio)-N-(furan-2-ylmethyl)acetamide], the 50% inhibitory concentration (IC50) was below 25 nM.

In turn, `Cc1sc2ncnc(SCC(=O)NCc3cccs3)c2c1C` [2-((5,6-dimethylthieno[2,3-d]pyrimidin-4-yl)thio)-N-(thiophen-2-ylmethyl)acetamide] yielded an IC50 below 100 nM.

Take `Cc1sc2ncnc(SCC(=O)NO)c2c1C` [2-((5,6-dimethylthieno[2,3-d]pyrimidin-4-yl)thio)-N-hydroxyacetamide]: the half-maximal inhibitory concentration (IC50) is below 25 nM.

Regarding `Cc1csc(CCNC(=O)CSc2ncnc3sc(C)c(Cl)c23)n1` [2-((5-chloro-6-methylthieno[2,3-d]pyrimidin-4-yl)thio)-N-(2-(4-methylthiazol-2-yl)ethyl)acetamide], the IC50 is below 25 nM.

In turn, `Cc1sc2ncnc(SCC(=O)NCc3ccncc3)c2c1Cl` [2-((5-chloro-6-methylthieno[2,3-d]pyrimidin-4-yl)thio)-N-(pyridin-4-ylmethyl)acetamide] gave a concentration for half-maximal inhibition (IC50) below 25 nM.

Compound `Cc1sc2ncnc(SCC(=O)NCc3cccs3)c2c1Cl` [2-((5-chloro-6-methylthieno[2,3-d]pyrimidin-4-yl)thio)-N-(thiophen-2-ylmethyl)acetamide] registered an IC50 below 25 nM.

In the case of `CCCNC(=O)CSc1ncnc2sc(C)c(Cl)c12` [2-((5-chloro-6-methylthieno[2,3-d]pyrimidin-4-yl)thio)-N-propylacetamide], the IC50 is below 25 nM.

`Cc1csc2ncnc(SCC(=O)O)c12` [2-((5-methylthieno[2,3-d]pyrimidin-4-yl)thio)acetic acid]: the IC50 was below 100 nM.

The compound `Cc1sc2c(SCC(=O)O)ncnc2c1C` [2-((6,7-dimethylthieno[3,2-d]pyrimidin-4-yl)thio)acetic acid] showed an IC50 below 25 nM.

`Cc1c(Br)sc2c(SCC(=O)O)ncnc12` [2-((6-bromo-7-methylthieno[3,2-d]pyrimidin-4-yl)thio)acetic acid]: the half-maximal inhibitory concentration (IC50) is below 25 nM.

As to `Cc1c(Cl)sc2ncnc(SCC(=O)O)c12` [2-((6-chloro-5-methylthieno[2,3-d]pyrimidin-4-yl)thio)acetic acid], the IC50 was below 25 nM.

Compound `CCc1sc2ncnc(SCC(=O)O)c2c1C` [2-((6-ethyl-5-methylthieno[2,3-d]pyrimidin-4-yl)thio)acetic acid] showed a half-maximal inhibitory concentration (IC50) below 25 nM.

On to `Cc1c(C(C)C)sc2ncnc(SCC(=O)O)c12` [2-((6-isopropyl-5-methylthieno[2,3-d]pyrimidin-4-yl)thio)acetic acid], for which the IC50 was below 50 nM.

Turning to `Cc1sc2ncnc(SCC(=O)NCCc3c[nH]cn3)c2c1Cl` [N-(2-(1H-imidazol-4-yl)ethyl)-2-((5-chloro-6-methylthieno[2,3-d]pyrimidin-4-yl)thio)acetamide], the half-inhibitory concentration (IC50) is below 25 nM.

In turn, `Cc1sc2ncnc(SCC(=O)Nc3n[nH]c4cccc(Cl)c34)c2c1C` [N-(4-chloro-1H-indazol-3-yl)-2-((5,6-dimethylthieno[2,3-d]pyrimidin-4-yl)thio)acetamide] returned a concentration for half-maximal inhibition (IC50) below 25 nM.

Regarding `Cc1sc2ncnc(SCC(=O)NS(=O)(=O)C3CC3)c2c1C` [N-(cyclopropylsulfonyl)-2-((5,6-dimethylthieno[2,3-d]pyrimidin-4-yl)thio)acetamide], the half-maximal inhibitory concentration (IC50) is below 25 nM.

In the case of `COC(=O)CSc1ncnc2sc(C)c(C3CC3)c12` [methyl 2-((5-cyclopropyl-6-methylthieno[2,3-d]pyrimidin-4-yl)thio)acetate], the half-maximal inhibitory concentration (IC50) is below 25 nM.

In the case of `COC(=O)CSc1ncnc2c(C3CC3)c(Cl)sc12` [methyl 2-((6-chloro-7-cyclopropylthieno[3,2-d]pyrimidin-4-yl)thio)acetate], the IC50 was below 25 nM.

`COC(=O)CSc1ncnc2sc(C3CC3)c(C)c12` [methyl 2-((6-cyclopropyl-5-methylthieno[2,3-d]pyrimidin-4-yl)thio)acetate] gave an IC50 below 25 nM.

Another experiment has as its target T1, human notum pectinacetyltransferase. Kind of experiment: Reporter assay (CellSensor LEF/TCF-bla FreeStyle 293F cells, Wnt3a and notum conditioned media). It counts as cell-based.
Conditions: not given
Here is the method: Plasmid containing human notum pectinacetyltransferase in pcDNA3.1(+) vector was transfected into HEK293 cells and clones were selecting by growing in presence of 400 ug/mL of G418. […] L cells overexpressing and secreting Wnt3a into the conditioned media were purchased from ATCC.
The assay protocol was as follows. […] The cell growth medium consisted of DMEM with 10% Dialyzed FBS, 5 μg/ml Blasticidin (Invitrogen, R210-01), 0.1 mM NEAA, 25 mM HEPES and 1×GPS. Cells were then trypsinized by first rinsing with PBS, followed by addition of 5 mL of trypsin and incubation of plates at room temperature for two minutes. A total of 10 mL of assay media (Opti-MEM, plus 0.5% dialyzed FBS, 0.1 mM NEAA, 1 mM sodium pyruvate, 10 mM HEPES, 1×GPS) was then added per 15 cm plate. Cells were counted and suspended at 0.75 million cells per mL. […] After incubation of cells at 37° C. for 3 hours, 10 μL of 30 mM LiCl in assay medium was added per well, followed by incubation at 37° C. for another 3 hours. […] Ten μL of the Wnt3a/notum pentinacetyltransferase mixture was then transferred from Greiner plates to each well of the 384-well plates containing the CellSensor cells. After incubation of cells overnight at 37° C., reactions were developed by addition of […] of 1×CCF4 (Invitrogen, Catalogue number K1085) to each well, covering the entire 384-well plate, and gentle rocking in the dark at room temperature for 3 hours.
The term EC50 denotes the midpoint of the concentration-response curve. A lower EC50 goes with greater potency. Regarding “2-(7-cyclopropyl-6-(trifluoromethyl)thieno[3,2-d]pyrimidin-4-yl)thio)acetate”, the concentration giving a half-maximal response (EC50) was below 1000 nM.

With `Cc1sc2ncnc(SCC(=O)N(C)CC(=O)O)c2c1Cl` [2-(2-((5-chloro-6-methylthieno[2,3-d]pyrimidin-4-yl)thio)-N-methylacetamido)acetic acid], the EC50 was below 1000 nM.

The compound `O=C(O)CSc1ncnc2c(C3CC3)c(C(F)(F)F)sc12` [2-(7-cyclopropyl-6-(trifluoromethyl)thieno[3,2-d]pyrimidin-4-yl)thio)acetic acid] yielded an EC50 below 1000 nM.

Compound `Cc1sc2ccnc(SCC(=O)O)c2c1Cl` [2-((3-chloro-2-methylthieno[3,2-c]pyridin-4-yl)thio)acetic acid] returned a concentration giving a half-maximal response (EC50) below 5000 nM.

With `Cc1sc2ncnc(SCC(=O)N3Cc4ccccc4C3)c2c1C` [2-((5,6-dimethylthieno[2,3-d]pyrimidin-4-yl)thio)-1-(isoindolin-2-yl)ethanone], the concentration for a half-maximal effect (EC50) was below 10000 nM.

For the compound `Cc1cc(NC(=O)CSc2ncnc3sc(C)c(C)c23)no1` [2-((5,6-dimethylthieno[2,3-d]pyrimidin-4-yl)thio)-N-(5-methylisoxazol-3-yl)acetamide], the half-maximal effective concentration (EC50) is below 1000 nM.

`Cc1sc2ncnc(SCC(=O)NOC3CCCCO3)c2c1C` (centres unmarked) [2-((5,6-dimethylthieno[2,3-d]pyrimidin-4-yl)thio)-N-((tetrahydro-2H-pyran-2-yl)oxy)acetamide] returned an EC50 below 1000 nM.

For `Cc1sc2ncnc(SCC(=O)NO)c2c1C` [2-((5,6-dimethylthieno[2,3-d]pyrimidin-4-yl)thio)-N-hydroxyacetamide], the EC50 was below 1000 nM.

For the compound `Cc1sc2ncnc(SCC(=O)NC(C)CO)c2c1Cl` (centres unmarked) [2-((5-chloro-6-methylthieno[2,3-d]pyrimidin-4-yl)thio)-N-(1-hydroxypropan-2-yl)acetamide], the 50% effective concentration (EC50) is below 5000 nM.

Take `Cc1sc2ncnc(SCC(=O)NS(C)(=O)=O)c2c1Cl` [2-((5-chloro-6-methylthieno[2,3-d]pyrimidin-4-yl)thio)-N-(methylsulfonyl)acetamide]: the 50% effective concentration (EC50) was below 1000 nM.

The compound `Cc1c(Cl)sc2c(SCC(=O)NCCN3CCCCC3)ncnc12` [2-((6-chloro-7-methylthieno[3,2-d]pyrimidin-4-yl)thio)-N-(2-(piperidin-1-yl)ethyl)acetamide] yielded an EC50 below 1000 nM.

The compound `Cc1c(Cl)sc2c(SCC(=O)NCc3cccs3)ncnc12` [2-((6-chloro-7-methylthieno[3,2-d]pyrimidin-4-yl)thio)-N-(thiophen-2-ylmethyl)acetamide] displayed a 50% effective concentration (EC50) below 1000 nM.

As for `Cc1c(C#N)sc2c(SCC(=O)O)ncnc12` [2-((6-cyano-7-methylthieno[3,2-d]pyrimidin-4-yl)thio)acetic acid], the EC50 is below 1000 nM.

With `Cc1c(C2CC2)sc2ncnc(SCC(=O)O)c12` [2-((6-cyclopropyl-5-methylthieno[2,3-d]pyrimidin-4-yl)thio)acetic acid], the EC50 is below 5000 nM.

`COC(=O)CSc1ncnc2c(C)c(C#N)sc12` [methyl 2-((6-cyano-7-methylthieno[3,2-d]pyrimidin-4-yl)thio)acetate] showed an EC50 below 1000 nM.
